Measurements reported in patent US7718394B2, “Methods for diagnosis and monitoring of neurological disease by detection of an encephalotoxin” (priority 2003, dated 2010).
Entries after “also recorded” stand apart in the source; their conditions may differ.

Assay: Inactivation of encephalotoxin by nitrous acid, heparin lyases and sulfatases (loss of neurotoxic activity)
Type: biochemical
Procedure: Structural characterization and inactivation of encephalotoxin (isolated by organic extractions, gel filtration, and sequential C18 HPLC from Aβ-stimulated microglial cell line BV2) was performed by various nitrous acid cleavage protocols. […] Traditionally, heparin lyase I acts primarily on heparin-containing GlcNS(1→4)IdoA2S sequences and heparin lyase III on HS primarily at a GlcNAc(1→4)IdoA or GlcNAc(1→4)GlcA sequence.
1 ml of CSF was fractionated by adsorption chromatography, dried under vacuum, and reconstituted in artificial CSF comprising electrolytes, such as NaCl, and glucose. Increasing amounts of fractionated toxin (range 0.1 to 500 ul equivalents of original sample volume) were added to triplicate cultures. Results were plotted as volume vs. % neuron kill (with kill calculated as % loss of immuno-stained hippocampal neurons against untreated control cultures). […] In order to compare different populations, a CSF Neurotoxicity Index was developed to assign scores that reflect level of neurotoxin. This index was calculated as an ED50 (the equivalent CSF volume that yields 50% of the maximal level of neuron killing).

Structure (SMILES): O=NO [nitrous acid]
- inactivation of encephalotoxin released by BV2 microglia (encephalotoxin from Aβ-stimulated microglial cell line BV2, FIG. 1A): inactivated; also recorded: eliminated
- inactivation of encephalotoxin recovered from lumbar CSF of subject with AD (lumbar CSF, AD, FIG. 1C): inactivated
- inactivation of encephalotoxin found in ventricular CSF of AD brain (ventricular CSF of AD brain, FIG. 1B): inactivated
